One data set deals with M. tuberculosis Erdman. The following applies: cited from earlier work.
The nature of data set [1]: metabolic stability against liver microsomes. The format is in vitro ADME. The following applies: 4 h at 37 °C, LC–MS/MS.
Data set [2] in a line: metabolic stability against liver microsomes. It counts as in vitro ADME. The following applies: 4 h at 37 °C, LC–MS/MS. The source holds these as a separate data set.
Data set [3] in a line: metabolic stability against liver microsomes. The format is in vitro ADME, mouse. The following applies: murine microsomes, 4 h at 37 °C, LC–MS/MS.
The next data set relates to M. tuberculosis H37Rv. The following applies: cited from earlier work.

Like-named read-outs stand apart in the source and are kept apart here.

For the molecule `NNC(=O)c1ccncc1` [INH, isoniazid], in the data set with M. tuberculosis Erdman (route IP), the “log10 CFU Spleen” value is reported as 0 ± 0 n = 5 log10 CFU, the “Δ log10 CFU Lungs (test vs control group means)” value is reported as −6.57 log10 CFU and the “Δ log10 CFU Spleen (test vs control group means)” value is given as −4.96 log10 CFU. In the data set with M. tuberculosis Erdman (route PO), the “log10 CFU Spleen” value is recorded as 0 ± 0 n = 5 log10 CFU, the “Δ log10 CFU Lungs (test vs control group means)” value is reported as −6.31 log10 CFU and the “Δ log10 CFU Spleen (test vs control group means)” value is −3.89 log10 CFU. Further, the “log10 CFU Lungs” value in the data set with M. tuberculosis Erdman (route PO, test compounds 50 mg/kg b.i.d., day 5-15 post infection) is recorded as 0 ± 0 n = 5 log10 CFU.
For “2-cyclohexyl-5-dimethylamino-6-(4-trifluorimethoxy)benzamido-1,3-benzoxazole [Compound 12]”, the “% metabolic clearance human” value in data set [1] amounted to 56%. The “% metabolic clearance rat” value in data set [2] came out at 22%. Besides, in data set [3], the “% metabolic clearance mouse” value is reported as 71%. For the same molecule, the “MIC (μg/mL) H37Rv” value with M. tuberculosis H37Rv was 6.25 µg/mL.

The record behind these values is publication PMC5445929 (Journal of fluorine chemistry, 2016).
